From ChEMBL document CHEMBL1147043, “Comparative metabolism of radiolabeled muraglitazar in animals and humans by quantitative and qualitative metabolite profiling” (Drug Metab Dispos, 2007)

What was measured:
[1] = Metabolic stability in cynomolgus monkey hepatocytes assessed as hydroxyl muraglitazar glucuronide level by LC/MS analysis relative to control; assay type: ADME, cell-based, Macaca fascicularis, Hepatocyte
Plasma [2] = experiment: Biodistribution in orally dosed Sprague-Dawley rat plasma assessed as O-demethyl muraglitazar level after 12 hrs by LC/MS analysis; assay type: ADME, organism-based; details: in vivo, po
Canis familiaris = experiment: AUC (0 to T) in Beagle dog at 2 mg/kg, po after 4 hrs; assay type: ADME, organism-based, Canis lupus familiaris, Plasma; set-up: time < 4 hr, dose 2 mg/kg, route oral; details: in vivo
[3] = Biodistribution in orally dosed human urine assessed as muraglitazar glucuronide level by LC/MS analysis; assay type: ADME, organism-based; details: in vivo, po
Plasma [4] = experiment: Biodistribution in orally dosed human plasma assessed as O-demethyl muraglitazar level after 1 hr by LC/MS analysis; assay type: ADME, organism-based; details: in vivo, po
Plasma [5] = experiment: Biodistribution in orally dosed human plasma assessed as 12-dihydroxy muraglitazar level after 12 hrs by LC/MS analysis; assay type: ADME, organism-based; details: in vivo, po
Plasma [6] = experiment: Biodistribution in orally dosed cynomolgus monkey plasma assessed as 17-dihydroxy muraglitazar level after 4 hrs by LC/MS analysis; assay type: ADME, organism-based, Macaca fascicularis; details: in vivo, po
Plasma [7] = experiment: Biodistribution in orally dosed cynomolgus monkey plasma assessed as O-demethyl muraglitazar level after 1 hr by LC/MS analysis; assay type: ADME, organism-based, Macaca fascicularis; details: in vivo, po
[8] = Drug concentration in bile duct-cannulated cynomolgus monkey urine assessed as recovery of radioactive dose at 5 mg/kg, po after 48 hrs; assay type: ADME, organism-based, Macaca fascicularis; set-up: dose 5 mg/kg, route oral; details: in vivo
[9] = Biodistribution in orally dosed cynomolgus monkey urine assessed as 12,17-dihydroxy muraglitazar level by LC/MS analysis; assay type: ADME, organism-based, Macaca fascicularis; details: in vivo, po
[10] = Biodistribution in orally dosed cynomolgus monkey feces assessed as O-dealkyl muraglitazar level by LC/MS analysis; assay type: ADME, organism-based, Macaca fascicularis; details: in vivo, po
[11] = Metabolic stability in CD1 mouse hepatocytes assessed as O-demethyl muraglitazar glucuronide level by LC/MS analysis relative to control; assay type: ADME, cell-based, Hepatocyte
[12] = Drug concentration in cynomolgus monkey urine at 1.9 mg/kg, po after 12 hrs; assay type: ADME, organism-based, Macaca fascicularis; set-up: dose 1.9 mg/kg, route oral; details: read-out: Drug uptake
[13] = Biodistribution in orally dosed cynomolgus monkey feces assessed as 12,17-dihydroxy muraglitazar level by LC/MS analysis; assay type: ADME, organism-based, Macaca fascicularis; details: in vivo, po
Hepatocyte [14] = experiment: Metabolic stability in Sprague-Dawley rat hepatocytes assessed as O-demethyl muraglitazar glucuronide level by LC/MS analysis relative to control; assay type: ADME, cell-based
Plasma [15] = experiment: Biodistribution in orally dosed human plasma assessed as O-demethyl muraglitazar level after 12 hrs by LC/MS analysis; assay type: ADME, organism-based; details: in vivo, po
[16] = Biodistribution in orally dosed human feces assessed as 17-hydroxy-O-demethyl muraglitazar level by LC/MS analysis; assay type: ADME, organism-based; details: in vivo, po
Plasma [17] = experiment: Biodistribution in orally dosed cynomolgus monkey plasma assessed as O-demethyl muraglitazar level after 4 hrs by LC/MS analysis; assay type: ADME, organism-based, Macaca fascicularis; details: in vivo, po
[18] = Biodistribution in orally dosed human urine assessed as 12-hydroxy muraglitazar level by LC/MS analysis; assay type: ADME, organism-based; details: in vivo, po
Hepatocyte [19] = experiment: Metabolic stability in Sprague-Dawley rat hepatocytes assessed as 12-hydroxy muraglitazar level by LC/MS analysis relative to control; assay type: ADME, cell-based
Plasma [20] = experiment: Biodistribution in orally dosed Beagle dog plasma assessed as O-demethyl muraglitazar level after 12 hrs by LC/MS analysis; assay type: ADME, organism-based, Canis lupus familiaris; details: in vivo, po
[21] = Metabolic stability in CD1 mouse hepatocytes assessed as radioactivity recovaries at 25.6 ug/mL after 4 hrs; assay type: ADME, cell-based, Hepatocyte
[22] = Metabolic stability in cynomolgus monkey hepatocytes assessed as 9-hydroxy muraglitazar level by LC/MS analysis relative to control; assay type: ADME, cell-based, Macaca fascicularis, Hepatocyte
Plasma [23] = experiment: Biodistribution in orally dosed Sprague-Dawley rat plasma assessed as muraglitazar 12-carboxylic acid level after 12 hrs by LC/MS analysis; assay type: ADME, organism-based; details: in vivo, po
[24] = Biodistribution in orally dosed human feces assessed as 12-hydroxy muraglitazar level by LC/MS analysis; assay type: ADME, organism-based; details: in vivo, po
[25] = Biodistribution in orally dosed cynomolgus monkey urine assessed as muraglitazar 12-carboxylic acid level by LC/MS analysis; assay type: ADME, organism-based, Macaca fascicularis; details: in vivo, po
[26] = Biodistribution in orally dosed Beagle dog feces assessed as acetylimide derivative of muraglitazar level by LC/MS analysis; assay type: ADME, organism-based, Canis lupus familiaris; details: in vivo, po
[27] = Biodistribution in orally dosed human urine assessed as 12-hydroxy-O-demethyl muraglitazar level by LC/MS analysis; assay type: ADME, organism-based; details: in vivo, po
Plasma [28] = experiment: Biodistribution in orally dosed human plasma assessed as 12-hydroxy-O-demethyl muraglitazar level after 12 hrs by LC/MS analysis; assay type: ADME, organism-based; details: in vivo, po
[29] = Drug concentration in bile duct-cannulated CD1 mouse bile at 1 mg/kg, po after 24 hrs; assay type: ADME, organism-based; set-up: dose 1 mg/kg, route oral; details: in vivo
[30] = Biodistribution in orally dosed cynomolgus monkey urine assessed as O-dealkyl muraglitazar level by LC/MS analysis; assay type: ADME, organism-based, Macaca fascicularis; details: in vivo, po
Plasma [31] = experiment: Biodistribution in orally dosed Sprague-Dawley rat plasma assessed as O-demethyl muraglitazar glucuronide level after 12 hrs by LC/MS analysis; assay type: ADME, organism-based; details: in vivo, po
[32] = Biodistribution in orally dosed cynomolgus monkey feces assessed as 9-hydroxy-O-demethyl muraglitazar level by LC/MS analysis; assay type: ADME, organism-based, Macaca fascicularis; details: in vivo, po
[33] = Drug concentration in Sprague-Dawley rat feces assessed as recovery of radioactive dose at 11 mg/kg, po after 168 hrs; assay type: ADME, organism-based; set-up: dose 11 mg/kg, route oral; details: in vivo
[34] = Fecal excretion of compound in orally dosed human within 96 hrs; assay type: ADME, organism-based; details: faeces, po, read-out: Activity
[35] = Drug concentration in human urine at 10 mg/kg, po after 8 hrs; assay type: ADME, organism-based; set-up: dose 10 mg/kg, route oral; details: read-out: Drug uptake
Hepatocyte [36] = experiment: Metabolic stability in human hepatocytes assessed as 8-hydroxy muraglitazar level by LC/MS analysis relative to control; assay type: ADME, cell-based
[37] = Drug concentration in bile duct-cannulated CD1 mouse urine assessed as recovery of radioactive dose at 1 mg/kg, po after 24 hrs; assay type: ADME, organism-based; set-up: dose 1 mg/kg, route oral; details: in vivo
Plasma [38] = experiment: Biodistribution in orally dosed Sprague-Dawley rat plasma assessed as 17-dihydroxy muraglitazar level after 12 hrs by LC/MS analysis; assay type: ADME, organism-based; details: in vivo, po
Rattus norvegicus [39] = experiment: AUC (0 to T) in Sprague-Dawley rat at 10 mg/kg, po after 24 hrs; assay type: ADME, organism-based, Plasma; set-up: time < 24 hr, dose 10 mg/kg, route oral; details: in vivo
Hepatocyte [40] = experiment: Metabolic stability in human hepatocytes assessed as radioactivity recovaries at 25.6 ug/mL after 4 hrs; assay type: ADME, cell-based
[41] = Metabolic stability in cynomolgus monkey hepatocytes assessed as muraglitazar glucuronide level by LC/MS analysis relative to control; assay type: ADME, cell-based, Macaca fascicularis, Hepatocyte
[42] = Bile excretion of compound in bile duct-cannulated orally dosed cynomolgus monkey within 48 hrs; assay type: ADME, organism-based, Macaca fascicularis; details: po, read-out: Activity
Hepatocyte [43] = experiment: Metabolic stability in human hepatocytes assessed as O-dealkyl-O-demethyl muraglitazar level by LC/MS analysis relative to control; assay type: ADME, cell-based
Cynomolgus monkey = experiment: Cmax in cynomolgus monkey at 1.9 mg/kg, po after 24 hrs; assay type: ADME, organism-based, Macaca fascicularis; set-up: dose 1.9 mg/kg, route oral; details: in vivo
[44] = Fecal excretion of compound in bile duct-cannulated orally dosed cynomolgus monkey within 48 hrs; assay type: ADME, organism-based, Macaca fascicularis; details: faeces, po, read-out: Activity
Rattus norvegicus [45] = experiment: Biodistribution in orally dosed Sprague-Dawley rat urine assessed as 9-hydroxy-O-demethyl muraglitazar level by LC/MS analysis; assay type: ADME, organism-based; details: in vivo, po
[46] = Drug concentration in cynomolgus monkey urine assessed as recovery of radioactive dose at 2 mg/kg, po after 168 hrs; assay type: ADME, organism-based, Macaca fascicularis; set-up: dose 2 mg/kg, route oral; details: in vivo
Plasma [47] = experiment: Biodistribution in orally dosed cynomolgus monkey plasma assessed as […] muraglitazar level after 1 hr by LC/MS analysis; assay type: ADME, organism-based, Macaca fascicularis; details: in vivo, po
Hepatocyte [48] = experiment: Metabolic stability in human hepatocytes assessed as hydroxyl-O-demethyl muraglitazar glucuronide level by LC/MS analysis relative to control; assay type: ADME, cell-based
[49] = Drug concentration in human urine assessed as recovery of radioactive dose at 10 mg, po after 240 hrs; assay type: ADME, organism-based; details: in vivo
[50] = Biodistribution in orally dosed cynomolgus monkey urine assessed as 17-hydroxy-O-demethyl muraglitazar level by LC/MS analysis; assay type: ADME, organism-based, Macaca fascicularis; details: in vivo, po
[51] = Biodistribution in orally dosed cynomolgus monkey feces assessed as muraglitazar glucuronide level by LC/MS analysis; assay type: ADME, organism-based, Macaca fascicularis; details: in vivo, po

In the case of `COc1ccc(OC(=O)N(CC(=O)O)Cc2ccc(OCCc3nc(-c4ccccc4)oc3C)cc2)cc1` [MURAGLITAZAR], the Drug uptake [1] was 2.8%, the Drug uptake (Plasma [2]) was 3.5% and the AUC (Canis familiaris) was 1.1 ugequiv.h/ml. The Drug uptake [3] was 1%, the Drug uptake (Plasma [4]) was 0.2% and the Drug uptake (Plasma [5]) was 1%. The Drug uptake (Plasma [6]) was 16.2%, the Drug uptake (Plasma [7]) was 0.1% and the Drug uptake [8] was 5%. For the same molecule, the Drug uptake [9] was 0.13%, the Drug uptake [10] was 2.81% and the Drug uptake [11] was < 0.2%. For the same molecule, the dose excreted at 12 h [12] was 1.7%, the Drug uptake [13] was 6.43% and the Drug uptake (Hepatocyte [14]) was < 0.2%. The Drug uptake (Plasma [15]) was 0.4%, the Drug uptake [16] was 1.48% and the Drug uptake (Plasma [17]) was 0.3%. It also gave a Drug uptake [18] of 0.03%, a Drug uptake (Hepatocyte [19]) of 1.3% and a Drug uptake (Plasma [20]) of 9%. For the same molecule, the Stability [21] was 95.6%, the Drug uptake [22] was 0.6% and the Drug uptake (Plasma [23]) was < 0.05%. It also gave a Drug uptake [24] of 8.2%, a Drug uptake [25] of 0.04% and a Drug uptake [26] of 0.18%. For the same molecule, the Drug uptake [27] was 0.16%, the Drug uptake (Plasma [28]) was 1% and the Drug uptake [29] was 0.375 mgequiv/ml. The Drug uptake [30] was 1.04%, the Drug uptake (Plasma [31]) was 0.4% and the Drug uptake [32] was 0.32%. The Drug uptake [33] was 87.7%, the dose excreted at 96 h [34] was 80% and the dose excreted at 8 h [35] was 1.3%. For the same molecule, the Drug uptake (Hepatocyte [36]) was < 0.2%, the Drug uptake [37] was 8.3% and the Drug uptake (Plasma [38]) was < 0.05%. It also gave an AUC (Rattus norvegicus [39]) of 105 ugequiv.h/ml, a Stability (Hepatocyte [40]) of 98.7% and a Drug uptake [41] of 1.7%. For the same molecule, the dose excreted at 48 h [42] was 36%, the Drug uptake (Hepatocyte [43]) was < 0.2% and the Cmax (Cynomolgus monkey) was 7.1 ugequiv/ml. For the same molecule, the dose excreted at 48 h [44] was 15%, the Drug uptake (Rattus norvegicus [45]) was 0.43% and the Drug uptake [46] was 3.7%. The Drug uptake (Plasma [47]) was 0.9%, the Drug uptake (Hepatocyte [48]) was < 0.2% and the Drug uptake [49] was 2.6%. For the same molecule, the Drug uptake [50] was 0.01% and the Drug uptake [51] was 0.8%.
